“Also recorded” adds a separate entry of the source.
Tests used:
[1] = tested on: Human Ovarian cancer cells, A2780; test: CHIP array: whole genome expression (HumanHT-12 v4.0 BeadChip); assay type: cell-based; conditions: 12 or 24 hours, vs control or untreated cells; for Fold change expression of ATF / Fold change expression of NMDAR2C: direction ↑; for Fold change expression of RAB27A / Fold change expression of SLC39A3: direction ↓
Method: Human Ovarian cancer cells, A2780, were treated with compound and different concentration for 12 or 24 hours. The total RNA from the treated human cells were extracted by Trizol (Invitrogen) and purified by Rneasy Mini kit (Qiagen, Valencia, Calif.). The concentration and integrity of all RNA samples were assessed using the NanoDrop ND-2000 spectrophotometer (NanoDrop Technologies, Wilmington, Del.) and the Bioanalyzer 2100 system (Agilent Technologies, Santa Clara, Calif.). 1 ug of total RNA from each sample were subjected to whole-genome gene expression analysis at the Microarray Core Facility of University of Texas Southwestern Medical Center (https://microarray.swmed.edu) using the HumanHT-12 v4.0 BeadChip (Illumina, San Diego, Calif.) according to the manufacturer's instructions. Microarray data were extracted using BeadStudio v3.1 software, background-subtracted, and normalized using a cubic spline algorithm. Genes differentially expressed between groups were identified using the Illumina custom error model implemented in BeadStudio. […] The pathways and interaction networks that the genes involved were further analyzed by Ingenuity Pathyway analysis software (www.ingenuity.com).
The treatment of A2780, human ovarian cancer cell line at different concentrations were examined for the differential gene expression compared to the whole human genome and compared to untreated samples (controls). A representative heat map reflecting the fold change in expressions of genes modulated by RRD2 involved in neurodegenerative diseases is shown in FIG. 3. […] These genes are implicated in neurological disorders and neurodegenerative diseases and the modulation of these genes by Phosphaplatins is significant for providing neuroprotection.

[2] = tested on: A2780 ovarian cancer cells; test: Western blot protein expression; assay type: cell-based, human; conditions: for ATF3 protein expression compared to control / HPD protein expression compared to control / NMDAR2C protein expression compared to control / RAB27A protein expression compared to control / SLC39A3 (ZIP3) protein expression compared to control / SQSTM1 protein expression compared to control: 24 hrs treatment, Western blot
Method: A2780 ovarian cancer cells cell line was cultured in 60 or 100 mm^3 cell culture dishes. Once the plated were 80% confluent, the cells were incubated in the presence and absence of either R,R-D2 or R,R-D4. After 24 hrs of drug treatment, proteins were extracted from the cells using 200-500 μl of either RIPA or MPER protein extraction reagent buffer or both. Halt protease inhibitor cocktail from Thermo Fisher was added to the protein extraction reagents. The protein concentration was measured using BCA kit from Promega. The freshly extracted proteins (40 to 50 μg) were run on a 4-12% or 4-20% tris-glycine gels, at 120 V for 2 to 3 hours after which the proteins were transferred onto nitrocellulose membranes for one hour. Then the blots were incubated in 5% milk. The following primary antibodies were incubated overnight in 5% milk. These antibodies include: mouse anti-rabbit IgG-FITC, mouse anti-goat IgG-PE, anti-mouse IgG2a-PE, SQSTM1 (D-3), Egr-2 (H-220), ZIP3 (D-14), TOX1 (T-12), ATF-3 (H-90), NMDAμ4 (C-20), HPPD (H-300), Fos B (C-20), PPT2 (C-18), Hep G2 Cell Lysate, TMEM106B (C-12), xCT (Q-18) after which the proteins were detected by species-specific HRP-conjugated secondary antibody using ECL chemiluminescence kit purchased from GE health care.
To confirm that the modulation of the genes listed in Table 1, following treatment with RRD2 and RRD4 in the human ovarian cancer cell line, A2780, also affects the protein expression of these genes, some representative genes from Table 1 were assessed for their corresponding protein expression as measured by Western Blot using protein specific antibodies. The protein expressions for HPD, SQSTM1, ATF3, NMDAR2C were higher compared to the control samples while RAB27A and SLC39A3 (ZIP3) expressions were lower than the control samples following treatment with the aforementioned compounds (FIGS. 4A-4B). Note that HPD and NMDAR2C were calibrated against both actin and GADPH (FIG. 4C). As indicated in the Tables, overexpressed proteins/genes are implicated in protecting neurons from a variety of neurodegenerative diseases.

[3] = tested on: hippocampal slices, CA1 pyramidale layer; test: Whole cell current-clamp recordings of action potentials in hippocampal slices; assay type: cell-based; conditions: rat hippocampal slices perfused with 20 μM, vs control, N=6
Method: (§1) Sprague-Dawley male rats (P14-18) were deeply anesthetized with ether and after the decapitation, the brains were removed rapidly and laced in the fresh high sucrose dissection solution. After hippocampus isolation, hippocampal slices ([…]) were prepared using a Vibratome. The prepared slices were incubated in the artificial cerebrospinal fluid (ACSF) (pH 7.3) for half an hour. After incubating period, slices were transferred to recording chamber while oxygenated ACSF was continuously perfused constantly with the rate of 2 ml/min at 30° C. Borosilicate glass recording electrodes were filled with 0.9% NaCl (1-2 MΩ) and used for extracellular field potential recordings. Extracellular recordings were done from the border area between radiatum and pyramidale layers. Filled micropipettes (4-7 MΩ) containing intracellular solution were used for whole cell current-clamp recordings in the CA1 pyramidale layer. To elicit action potential activity, depolarizing square wave current pulses incremented by 20 pA were injected into the somas for 500-1000 ms, followed by 10 ms return to the baseline holding membrane potential (−80 mV). In addition, to square wave current pulses, slow depolarizing ramp-like current injections were used to quantify action potential threshold values. Neuronal membrane and field potential recordings were performed in control and in the RRD4 groups. RDD4 group brain slices were perfused with 20 μM RRD4. Zero magnesium model of inducing epileptiform activities was used in these experiments. In the treated group slices were incubated in 20 μM RRD4 for 15 minutes, and then were exposed to zero magnesium solution.
The neurodegeneration observed in many diseases has been associated with a progressive decrease in neuronal activity and synaptic dismantling is associated with many neurodegenerative diseases. A potential strategy for preventing and/or halting neurodegenerative disease is by modulating intrinsic properties of individual neurons. Applicants observed that RRD4 pretreatment increased action potential threshold (FIG. 5). Action potential threshold was measured at the beginning of the sharp upward rise of the depolarizing phase of the action potential. (*P<0.05). Based on the data, RRD4 increases action potential (AP) threshold and decreases its amplitude. […] Further, pretreated slices with RRD4 had lower peak potential amplitude (FIG. 6). Mean values for the AP amplitude is voltage difference in 10-90% rise time in each action potential. (*P<0.05).

hippocampal slices = test: Zero magnesium model of epileptiform activity in hippocampal slices; assay type: cell-based, rat; conditions: slices incubated in 20 μM for 15 minutes, then zero magnesium solution, N=6
Method: as §1, with “RDD4 group brain slices were perfused with 20 μM RRD4. Zero magnesium model of inducing epileptiform activities was used in these experiments. In the treated group slices were incubated in 20 μM RRD4 for 15 minutes, and then were exposed to zero magnesium solution.” left out

Compound | Fold change expression of ATF [1] | Fold change expression of NMDAR2C [1] | Fold change expression of RAB27A [1] | Fold change expression of SLC39A3 [1] | RAB27A protein expression vs untreated cells ([2]; 25 μM, FIG. 4A) | SQSTM protein expression vs untreated cells ([2]; 25 μM, FIG. 4A) | ATF3 protein expression compared to control [2] | HPD protein expression compared to control [2] | NMDAR2C protein expression compared to control [2] | RAB27A protein expression compared to control [2] | SLC39A3 (ZIP3) protein expression compared to control [2] | SQSTM1 protein expression compared to control [2] | Action potential (AP) amplitude [3] | Action potential (AP) threshold [3] | Input resistance [3] | Membrane depolarization in treated cells [3] | Time to seizure onset (seizure threshold, first seizure formation) (hippocampal slices) | RAB27A protein expression vs untreated cells ([2]; 20 μM, FIG. 4A)
NC1CCCCC1N.O=P1(O)OP(=O)(O)[O][Pt]([OH])([OH])[O]1 [RRD4] | 10↑ fold | 8↑ fold | 1.7↓ fold | 2↓ fold | overexpressed in untreated cells as compared to cells treated | enhanced expression | higher | higher | higher | lower | lower | higher | lower; also recorded: decreased significantly | increased; also recorded: raised | no effect | significantly more depolarized | significant effect in delaying; also recorded: significantly delayed | 
N[C@@H]1CCCC[C@H]1N.O=P([O-])(O)OP(=O)([O-])O.[Pt+2] [RRD2] | 10↑ fold | 8↑ fold | 1.7↓ fold | 2↓ fold |  |  | higher | higher | higher | lower | lower | higher |  |  |  |  |  | overexpressed in untreated cells as compared to cells treated

From patent publication US20170224711A1, “COMPOSITIONS AND METHODS FOR THE TREATMENT OF NEURODEGENERATIVE DISEASES” (University of Houston System, priority 2014, published 2017)
